Source: ChEMBL document CHEMBL1201861, “Genomics of Drug Sensitity in Cancer screening data, Wellcome Trust Sanger Institute”
Where “and” joins values, the source holds several entries; their conditions need not be identical. Equal values may be shown once.

Columns and labels:
Assay in all cases: cells
HT-3 = format: functional, cell-based, Homo sapiens
Description: SANGER: Inhibition of human HT-3 cell growth in a cell viability assay.

KMOE-2 = format: functional, cell-based; conditions: Homo sapiens
Description: SANGER: Inhibition of human KMOE-2 cell growth in a cell viability assay.

Hs-578T = format: functional, cell-based, Homo sapiens
Description: SANGER: Inhibition of human Hs-578-T cell growth in a cell viability assay.

SK-OV-3 = format: functional, cell-based, Homo sapiens
Description: SANGER: Inhibition of human SK-OV-3 cell growth in a cell viability assay.

HCC2157 = format: functional, cell-based; conditions: Homo sapiens
Description: SANGER: Inhibition of human HCC2157 cell growth in a cell viability assay.

DU-145 = format: functional, cell-based, Homo sapiens
Description: SANGER: Inhibition of human DU-145 cell growth in a cell viability assay.

MKN-1 = format: functional, cell-based, Homo sapiens
Description: SANGER: Inhibition of human MKN1 cell growth in a cell viability assay.

SW626 = format: functional, cell-based, Homo sapiens
Description: SANGER: Inhibition of human SW626 cell growth in a cell viability assay.

CAL-72 = format: functional, cell-based, Homo sapiens
Description: SANGER: Inhibition of human CAL-72 cell growth in a cell viability assay.

BFTC-905 = format: functional, cell-based, Homo sapiens
Description: SANGER: Inhibition of human BFTC-905 cell growth in a cell viability assay.

EFO-27 = format: functional, cell-based, Homo sapiens
Description: SANGER: Inhibition of human EFO-27 cell growth in a cell viability assay.

MDA-MB-157 = format: functional, cell-based, Homo sapiens
Description: SANGER: Inhibition of human MDA-MB-157 cell growth in a cell viability assay.

HSC-3 = format: functional, cell-based, Homo sapiens
Description: SANGER: Inhibition of human HSC-3 cell growth in a cell viability assay.

OE19 = format: functional, cell-based, Homo sapiens
Description: SANGER: Inhibition of human OE19 cell growth in a cell viability assay.

CP66-MEL = format: functional, cell-based, Homo sapiens
Description: SANGER: Inhibition of human CP66-MEL cell growth in a cell viability assay.

U-251 = format: functional, cell-based, Homo sapiens
Description: SANGER: Inhibition of human U251 cell growth in a cell viability assay.

NCI-H596 = format: functional, cell-based, Homo sapiens
Description: SANGER: Inhibition of human NCI-H596 cell growth in a cell viability assay.

HT-1376 = format: functional, cell-based, Homo sapiens
Description: SANGER: Inhibition of human HT-1376 cell growth in a cell viability assay.

MDA-MB-453 = format: functional, cell-based, Homo sapiens
Description: SANGER: Inhibition of human MDA-MB-453 cell growth in a cell viability assay.

NCI-H1838 = format: functional, cell-based, Homo sapiens
Description: SANGER: Inhibition of human NCI-H1838 cell growth in a cell viability assay.

NB69 = format: functional, cell-based, Homo sapiens
Description: SANGER: Inhibition of human NB69 cell growth in a cell viability assay.

D-336MG = format: functional, cell-based, Homo sapiens
Description: SANGER: Inhibition of human D-336MG cell growth in a cell viability assay.

SCC-9 = format: functional, cell-based, Homo sapiens
Description: SANGER: Inhibition of human SCC-9 cell growth in a cell viability assay.

K562 = format: functional, cell-based; conditions: Homo sapiens
Description: SANGER: Inhibition of human K-562 cell growth in a cell viability assay.

LB831-BLC = format: functional, cell-based, Homo sapiens
Description: SANGER: Inhibition of human LB831-BLC cell growth in a cell viability assay.

A3-KAW = format: functional, cell-based; conditions: Homo sapiens
Description: SANGER: Inhibition of human A3-KAW cell growth in a cell viability assay.

GCIY = format: functional, cell-based, Homo sapiens
Description: SANGER: Inhibition of human GCIY cell growth in a cell viability assay.

NTERA-2-cl-D1 = format: functional, cell-based, Homo sapiens
Description: SANGER: Inhibition of human NTERA-S-cl-D1 cell growth in a cell viability assay.

NCI-H1581 = format: functional, cell-based, Homo sapiens
Description: SANGER: Inhibition of human NCI-H1581 cell growth in a cell viability assay.

MDA-MB-231 = format: functional, cell-based, Homo sapiens
Description: SANGER: Inhibition of human MDA-MB-231 cell growth in a cell viability assay.

BE-13 = format: functional, cell-based; conditions: Homo sapiens
Description: SANGER: Inhibition of human BE-13 cell growth in a cell viability assay.

HTC-C3 = format: functional, cell-based, Homo sapiens
Description: SANGER: Inhibition of human HTC-C3 cell growth in a cell viability assay.

SCC-15 = format: functional, cell-based, Homo sapiens
Description: SANGER: Inhibition of human SCC-15 cell growth in a cell viability assay.

EW-3 = format: functional, cell-based; conditions: Homo sapiens
Description: SANGER: Inhibition of human EW-3 cell growth in a cell viability assay.

PC-3 = format: functional, cell-based, Homo sapiens
Description: SANGER: Inhibition of human PC-3 cell growth in a cell viability assay.

SW1463 = format: functional, cell-based, Homo sapiens
Description: SANGER: Inhibition of human SW1463 cell growth in a cell viability assay.

LU-139 = format: functional, cell-based; conditions: Homo sapiens
Description: SANGER: Inhibition of human LU-139 cell growth in a cell viability assay.

MV4-11 = format: functional, cell-based, MV-4-11; conditions: Homo sapiens
Description: SANGER: Inhibition of human MV-4-11 cell growth in a cell viability assay.

SBC-1 = format: functional, cell-based; conditions: Homo sapiens
Description: SANGER: Inhibition of human SBC-1 cell growth in a cell viability assay.

Detroit 562 = format: functional, cell-based, Homo sapiens
Description: SANGER: Inhibition of human Detroit562 cell growth in a cell viability assay.

HCC1395 = format: functional, cell-based, Homo sapiens
Description: SANGER: Inhibition of human HCC1395 cell growth in a cell viability assay.

ETK-1 = format: functional, cell-based, Homo sapiens
Description: SANGER: Inhibition of human ETK-1 cell growth in a cell viability assay.

NEC8 = format: functional, cell-based, Homo sapiens
Description: SANGER: Inhibition of human NEC8 cell growth in a cell viability assay.

T98G = format: functional, cell-based, Homo sapiens
Description: SANGER: Inhibition of human T98G cell growth in a cell viability assay.

UACC-62 = format: functional, cell-based, Homo sapiens
Description: SANGER: Inhibition of human UACC-62 cell growth in a cell viability assay.

C-33-A = format: functional, cell-based, Homo sapiens
Description: SANGER: Inhibition of human C-33-A cell growth in a cell viability assay.

NCI-H441 = format: functional, cell-based; conditions: Homo sapiens
Description: SANGER: Inhibition of human NCI-H441 cell growth in a cell viability assay.

ALL-PO = format: functional, cell-based; conditions: Homo sapiens
Description: SANGER: Inhibition of human ALL-PO cell growth in a cell viability assay.

CAL-85-1 = format: functional, cell-based; conditions: Homo sapiens
Description: SANGER: Inhibition of human CAL-85-1 cell growth in a cell viability assay.

A253 cell line = format: functional, cell-based, Homo sapiens
Description: SANGER: Inhibition of human A253 cell growth in a cell viability assay.

BT-20 = format: functional, cell-based, Homo sapiens
Description: SANGER: Inhibition of human BT-20 cell growth in a cell viability assay.

PSN1 = format: functional, cell-based, Homo sapiens
Description: SANGER: Inhibition of human PSN1 cell growth in a cell viability assay.

## Cc1cc([C@@H](C)Nc2ccccc2C(=O)O)c2nc(N3CCOCC3)cc(=O)n2c1 [AZD-6482]
HT-3; ht-3
  IC50: > 5.12 µM
KMOE-2
  IC50: > 5.12 µM
Hs-578T; hs-578-t
  IC50: > 5.12 µM and 3.5 µM
SK-OV-3; sk-ov-3
  IC50: 1.2 µM and 4.67 µM
HCC2157
  IC50: 3.96 µM
DU-145; du-145
  IC50: > 5.12 µM and 1.37 µM
MKN-1; mkn-1
  IC50: > 5.12 µM
SW626; sw626
  IC50: > 5.12 µM
CAL-72; Homo sapiens, CAL-72
  IC50: > 5.12 µM
CAL-72; cal-72
  IC50: > 5.12 µM
BFTC-905; bftc-905
  IC50: > 5.12 µM and 4.15 µM
EFO-27; Homo sapiens, EFO-27
  IC50: > 5.12 µM
EFO-27; efo-27
  IC50: > 5.12 µM
MDA-MB-157; mda-mb-157
  IC50: > 5.12 µM
HSC-3; hsc-3
  IC50: > 5.12 µM
OE19; oe19
  IC50: > 5.12 µM
CP66-MEL; Homo sapiens, CP66-MEL
  IC50: > 5.12 µM
CP66-MEL; cp66-mel
  IC50: > 5.12 µM
U-251; u-251
  IC50: > 5.12 µM
NCI-H596; nci-h596
  IC50: > 5.12 µM
HT-1376; ht-1376
  IC50: > 5.12 µM
MDA-MB-453; mda-mb-453
  IC50: > 5.12 µM and 2.33 µM
NCI-H1838; nci-h1838
  IC50: > 5.12 µM
NB69; Homo sapiens, NB69
  IC50: > 5.12 µM
NB69; nb69
  IC50: > 5.12 µM
D-336MG; d-336mg
  IC50: 1.67 µM and 3.43 µM
SCC-9; Homo sapiens, SCC-9
  IC50: 0.858 µM
SCC-9; scc-9
  IC50: 0.904 µM
K562
  IC50: > 5.12 µM
LB831-BLC; lb831-blc
  IC50: > 5.12 µM
A3-KAW
  IC50: > 5.12 µM
GCIY; gciy
  IC50: > 5.12 µM and 2.2 µM
NTERA-2-cl-D1; Homo sapiens, NTERA-2-cl-D1
  IC50: 2.19 µM
NTERA-2-cl-D1; ntera-2-cl-d1
  IC50: 4.38 µM
NCI-H1581; nci-h1581
  IC50: > 5.12 µM
MDA-MB-231; Homo sapiens, MDA-MB-231
  IC50: > 5.12 µM
MDA-MB-231; mda-mb-231
  IC50: > 5.12 µM
BE-13
  IC50: > 5.12 µM
HTC-C3; Homo sapiens, HTC-C3
  IC50: > 5.12 µM
HTC-C3; htc-c3
  IC50: > 5.12 µM
SCC-15; scc-15
  IC50: > 5.12 µM
EW-3
  IC50: > 5.12 µM
PC-3; pc-3
  IC50: > 5.12 µM
SW1463; sw1463
  IC50: > 5.12 µM
LU-139
  IC50: > 5.12 µM
MV4-11
  IC50: 2.66 µM
SBC-1
  IC50: > 5.12 µM
Detroit 562; detroit 562
  IC50: 1.05 µM and 2.13 µM
HCC1395; Homo sapiens, HCC1395
  IC50: > 5.12 µM
HCC1395; hcc1395
  IC50: > 5.12 µM
ETK-1; etk-1
  IC50: > 5.12 µM
NEC8; nec8
  IC50: > 5.12 µM and 3.81 µM
T98G; Homo sapiens, T98G
  IC50: > 5.12 µM
T98G; t98g
  IC50: > 5.12 µM
UACC-62; uacc-62
  IC50: > 5.12 µM and 2.03 µM
C-33-A; c-33-a
  IC50: > 5.12 µM
NCI-H441
  IC50: > 5.12 µM
ALL-PO
  IC50: > 5.12 µM
CAL-85-1
  IC50: 2.28 µM
A253 cell line; Homo sapiens, A253
  IC50: > 5.12 µM
A253 cell line; a253
  IC50: > 5.12 µM
BT-20; bt-20
  IC50: 0.592 µM and 1.79 µM
PSN1; psn1
  IC50: > 5.12 µM

## COc1cc([C@@H]2c3cc4c(cc3[C@@H](O[C@@H]3O[C@@H]5CO[C@@H](C)O[C@H]5[C@H](O)[C@H]3O)[C@H]3COC(=O)[C@H]23)OCO4)cc(OC)c1O [ETOPOSIDE]
HT-3; Homo sapiens, HT-3
  IC50: 1.13 µM
KMOE-2
  IC50: 8.04 µM
Hs-578T; Homo sapiens, Hs-578T
  IC50: > 16 µM
SK-OV-3; Homo sapiens, SK-OV-3
  IC50: 10.8 µM
HCC2157
  IC50: > 16 µM
DU-145; Homo sapiens, DU-145
  IC50: 0.591 µM
MKN-1; Homo sapiens, MKN-1
  IC50: 0.382 µM
SW626; Homo sapiens, SW626
  IC50: 8.9 µM
CAL-72; Homo sapiens, CAL-72
  IC50: > 16 µM
BFTC-905; Homo sapiens, BFTC-905
  IC50: 0.426 µM
EFO-27; Homo sapiens, EFO-27
  IC50: 3.36 µM
MDA-MB-157; Homo sapiens, MDA-MB-157
  IC50: 12.6 µM
HSC-3; Homo sapiens, HSC-3
  IC50: 1.44 µM
OE19; Homo sapiens, OE19
  IC50: > 16 µM
CP66-MEL; Homo sapiens, CP66-MEL
  IC50: 6.25 µM
U-251; Homo sapiens, U-251
  IC50: 0.501 µM
NCI-H596; Homo sapiens, NCI-H596
  IC50: > 16 µM
HT-1376; Homo sapiens, HT-1376
  IC50: 5.82 µM
MDA-MB-453; Homo sapiens, MDA-MB-453
  IC50: > 16 µM
NCI-H1838; Homo sapiens, NCI-H1838
  IC50: > 16 µM
NB69; Homo sapiens, NB69
  IC50: 1.09 µM
D-336MG; Homo sapiens, D-336MG
  IC50: > 16 µM
SCC-9; Homo sapiens, SCC-9
  IC50: 0.85 µM
K562
  IC50: > 16 µM
LB831-BLC; Homo sapiens, LB831-BLC
  IC50: 6.15 µM
A3-KAW
  IC50: 0.358 µM
GCIY; Homo sapiens, GCIY
  IC50: 0.925 µM
NTERA-2-cl-D1; Homo sapiens, NTERA-2-cl-D1
  IC50: 0.025 µM
NCI-H1581; Homo sapiens, NCI-H1581
  IC50: > 16 µM
MDA-MB-231; Homo sapiens, MDA-MB-231
  IC50: 9.09 µM
BE-13
  IC50: 0.504 µM
HTC-C3; Homo sapiens, HTC-C3
  IC50: > 16 µM
SCC-15; Homo sapiens, SCC-15
  IC50: 13.1 µM
EW-3
  IC50: 14.3 µM
PC-3; Homo sapiens, PC-3
  IC50: > 16 µM
SW1463; Homo sapiens, SW1463
  IC50: > 16 µM
LU-139
  IC50: 4.01 µM
MV4-11
  IC50: 0.151 µM
SBC-1
  IC50: > 16 µM
Detroit 562; Homo sapiens, Detroit 562
  IC50: 11.1 µM
HCC1395; Homo sapiens, HCC1395
  IC50: > 16 µM
ETK-1; Homo sapiens, ETK-1
  IC50: 2.75 µM
NEC8; Homo sapiens, NEC8
  IC50: 0.539 µM
T98G; Homo sapiens, T98G
  IC50: 8.82 µM
UACC-62; Homo sapiens, UACC-62
  IC50: 2.92 µM
C-33-A; Homo sapiens, C-33-A
  IC50: 0.862 µM
NCI-H441
  IC50: 11.2 µM
ALL-PO
  IC50: 0.69 µM
CAL-85-1
  IC50: 2.16 µM
A253 cell line; Homo sapiens, A253
  IC50: 0.0184 µM
BT-20; Homo sapiens, BT-20
  IC50: 4.58 µM
PSN1; Homo sapiens, PSN1
  IC50: > 16 µM
